Read-outs that look alike come from different tables or passages of the source.
Tests used:
Format in all cases: cell-based
[1] = system: human dermal fibroblasts from CoQ10 deficient patients harboring a CoQ2 mutation; experiment: Rescue of fibroblasts from CoQ10 deficient patients from oxidative stress (similar to Example A); conditions: BSO-stressed, read-out: EC50, protection against CoQ10
Method: [Worded in the source for another cell line; this cell line is reported under the same test.] (§1) An initial screen was performed to identify compounds effective for the amelioration of redox disorders. Test samples, 4 reference compounds (Idebenone, decylubiquinone, Trolox and α-tocopherol acetate), and solvent controls were tested for their ability to rescue FRDA fibroblasts stressed by addition of L-buthionine-(S,R)-sulfoximine (BSO), as described in Jauslin et al., Hum. Mol. Genet. 11(24):3055 (2002), Jauslin et al., FASEB J. 17:1972-4 (2003), and International Patent Application WO 2004/003565. […] This specific BSO-mediated cell death can be prevented by administration of antioxidants or molecules involved in the antioxidant pathway, such as α-tocopherol, selenium, or small molecule glutathione peroxidase mimetics. However, antioxidants differ in their potency, i.e. the concentration at which they are able to rescue BSO-stressed FRDA fibroblasts.
Test samples were screened according to the following protocol: • A culture with FRDA fibroblasts was started from a 1 ml vial with approximately 500,000 cells stored in liquid nitrogen. Cells were propagated in 10 cm cell culture dishes by splitting every third day in a ratio of 1:3 until nine plates were available. Once confluent, fibroblasts were harvested. For 54 micro titer plates (96 well-MTP) a total of 14.3 million cells (passage eight) were re-suspended in 480 ml medium, corresponding to 100 μl medium with 3,000 cells/well. The remaining cells were distributed in 10 cm cell culture plates (500,000 cells/plate) for propagation. The plates were incubated overnight at 37° C. in an atmosphere with 95% humidity and 5% CO2 to allow attachment of the cells to the culture plate.
MTP medium (243 μl) was added to a well of the microtiter plate. […]
(§2) 100 μl of PBS containing 1.2 μM Calcein AM were then added to each well. […] After that time the PBS was discarded, the plate gently tapped on a paper towel and fluorescence (excitation/emission wavelengths of 485 nm and 525 nm, respectively) was read on a Gemini fluorescence reader. […]

[2] = system: Human dermal fibroblasts from Friedreich's Ataxia patients; experiment: Rescue of BSO-stressed FRDA fibroblasts (Calcein AM viability); conditions: FRDA fibroblasts GM04078, BSO-stressed, read-out: EC50, protection against Friedreich's ataxia
Method: as §1
MEM (a medium enriched in amino acids and vitamins, catalog no. 1-31F24-I) and Medium 199 (M199, catalog no. 1-21F22-I) with Earle's Balanced Salts, without phenol red, were purchased from Bioconcept. Fetal Calf Serum was obtained from PAA Laboratories. Basic fibroblast growth factor and epidermal growth factor were purchased from PeproTech. Penicillin-streptomycin-glutamine mix, L-buthionine (S,R)-sulfoximine, (+)-α-tocopherol acetate, decylubiquinone, and insulin from bovine pancreas were purchased from Sigma. Trolox (6-hydroxy-2,5,7,8-tetramethylchromane-2-carboxylic acid) was obtained from Fluka. Idebenone was obtained from Chemo Iberica. Calcein AM was purchased from Molecular Probes. Cell culture medium was made by combining 125 ml M199 EBS, 50 ml Fetal Calf Serum, 100 U/ml penicillin, 100 μg/ml streptomycin, 2 mM glutamine, 10 μg/ml insulin, 10 ng/ml EGF, and 10 ng/ml bFGF; MEM EBS was added to make the volume up to 500 ml. A 10 mM BSO solution was prepared by dissolving 444 mg BSO in 200 ml of medium with subsequent filter-sterilization. During the course of the experiments, this solution was stored at +4° C. […]

[3] = system: human dermal fibroblasts from LHON patients; experiment: Rescue of fibroblasts from LHON patients from oxidative stress (as Example A); conditions: Fibroblast, LHON fibroblasts GM03858, BSO-stressed, read-out: EC50, protection against LHON
Method: [Worded in the source for another cell line; this cell line is reported under the same test.] as §1
(§3) Test samples were screened according to the following protocol: • A culture with FRDA fibroblasts was started from a 1 ml vial with approximately 500,000 cells stored in liquid nitrogen. […]
as §2

[4] = system: human dermal fibroblasts from Parkinson's Disease patients; experiment: Rescue of fibroblasts from Parkinson's Disease patients from oxidative stress (similar to Example A); conditions: PD fibroblasts AG20439, BSO-stressed, read-out: EC50, protection against Parkinson's
Method: [Worded in the source for another cell line; this cell line is reported under the same test.] as §1, §3, §2

With `CN1CCc2c(c3ccccc3n2Cc2ccccc2)C1` [5-benzyl-2-methyl-2,3,4,5-tetrahydro-1H-pyrido[4,3-b]indole] as the compound, how does the EC50 ([1]; Homo sapiens, Fibroblast) read?
Its EC50 is 3.35 µM.

What about the EC50 ([2]; Homo sapiens) of the same compound?
The EC50 was 4.26 µM.

And the EC50 [3]?
Its EC50 is 1.2 µM.

And the EC50 ([4]; Homo sapiens, Fibroblast)?
Its EC50 is 0.93 µM.

For `Cc1ccc2c(c1)C1CNCCC1N2` (stereo not drawn) [8-methyl-1,3,4,4a,5,9b-tetrahydro-1H-pyrido[4,3-b]indole], which EC50 [1] is on record?
The EC50 was 7 µM.

What about the EC50 [2] of the same compound?
The EC50 was 4.1 µM.

And the EC50 [4]?
The EC50 was 3.68 µM.

How did the EC50 ([1]; Homo sapiens, Fibroblast) turn out when `Cc1ccc2c(c1)c1c(n2CCc2ccc(C)nc2)CCN(C)C1` [dimebolin, 2,8-dimethyl-5-(2-(6-methylpyridin-3-yl)ethyl)-2,3,4,5-tetrahydro-1H-pyrido[4,3-b]indole] was run?
The EC50 was 0.23 µM.

And the EC50 ([2]; Homo sapiens)?
Its EC50 is 1.9 µM.

Reference: patent publication US20100029706A1, “HYDROGENATED PYRIDO[4,3-b]INDOLES FOR THE TREATMENT OF OXIDATIVE STRESS” (Edison Parmaceuticals, Inc. a Delaware Corporation, priority 2008, published 2010)
